Read-outs that look alike come from different tables or passages of the source. Where a SMILES comes first, the peptide text is derived from it.
Experiments:
HIV-1 IIIB (X4) = assay: In vitro exogenous HIV-1 infection of PHA-stimulated PBMCs, IIIB strain (p24 assay); type: cell-based; conditions: day 10, p24, mean of 3 determinations
Protocol: (§3) Briefly, for endogenous HIV-1 replication assays peripheral blood mononuclear cells (PBMCs) from R5 HIV-1-infected patients characterized by high viral RNA titers in plasma and cell-associated viremia were cultured in 96-well plates at 1×10^6 cells/mL in RPMI 1640 medium with 10% fetal calf serum (FCS) and 20 U/mL of rIL-2. Exogenous rIL-2 was added every 3–4 days. Cultures were treated with synthetic mAb CDRs and mAb C7/pc42 H1 asd at 10 µg/mL during the time of culture. Virus production on days 5 and 10 was assayed in the supernatants using ultrasensitive Alliance® HIV-1 p24 ELISA kit (Perkin Elmer); p24 Ag in the supernatants of untreated cultures corresponded to 100% of viral production. For exogenous infection assays, PHA-stimulated PBMCs obtained from healthy individuals were infected with BaL (R5) or IIIB (X4) HIV-1 strain at a median tissue culture infective dose (TCID50) of 500 TCID50/ml. After 2 h of adsorption, the cells were washed, suspended at 2×10^5 cells/ml in medium and cultured in 96-well cultures plates. At time zero of infection, synthetic peptides were added to the cultures at 10 µg/ml and were maintained throughout the experiment. All assays were performed in triplicate. Virus production was assayed 10 days after infection in the supernatants of HIV-1-infected PBMCs by p24 assay.

HIV-1 BaL (R5) = assay: In vitro exogenous HIV-1 infection of PHA-stimulated PBMCs, BaL strain (p24 assay); type: cell-based; conditions: day 10, p24, mean of 3 determinations
Protocol: as §3

Candida albicans UP10 = type: cell-based; conditions: for Anti-Candida activity (%) at 100 µg/mL: 37°C, 6 h, triplicate; for EC50: UP10, 6 h; for EC50asd/EC50H2: anti-Candida EC50 of the derivative relative to C7/pc42 H2
Protocol: The alanine substituted derivatives (asd), defined according to the position held by the alanine-substituted aminoacid, were tested in the same biological assays to critically establish the functional relevance of each residue [5]. In vitro microbicidal activity of CDR peptides and selected asd against C. albicans UP 10 (clinical isolate from the fungi collection of the University of Parma) and C. albicans NCPF 3153 (National Collection of Pathogenic Fungi, Bristol, UK) were used for the in vitro experiments.
The microbicidal activity of synthetic CDRs against C. albicans strains was preliminarily evaluated by testing 100 µg/mL of each synthetic peptide by colony forming unit (CFU) assays as previously described [5]. Briefly, 10 µL of a distilled water suspension containing ∼5×10^4/mL germinating yeast cells were added to 90 µL of distilled water containing the synthetic peptide to be tested. Yeast suspensions were incubated at 37°C for 6 h. After incubation, the cell suspensions were plated on Sabouraud dextrose agar, incubated at 30°C and observed for CFU determination after 48–72 hours. Each assay was carried out in triplicate. […] EC50 was calculated by nonlinear regression analysis using Graph Pad Prism 4.01 software, San Diego, CA, USA.

R5 HIV-1 = type: cell-based; conditions: for % inhibitory activity (10 µg/ml), endogenous HIV-1 replication: ex vivo, day 10 of culture, p24, mean of 3 determinations; for % inhibitory activity (10 µg/ml): R5, 2 h
Protocol: as §3

[1] = system: B16F10-Nex2 murine melanoma cells; type: cell-based; conditions: 12 h
SKmel-28 = type: cell-based, human
Protocol: (§1) Murine B16F10-Nex2 melanoma cells (cloned at the Experimental Oncology Unit, Federal University of São Paulo, UNIFESP), and human SKmel28 and SKmel25 human melanoma cell lines originally obtained from the Memorial Sloan Kettering Cancer Center, New York, were cultured at 37°C, under humid atmosphere and 5% CO2, in RPMI-1640 medium with 10 mM N-2-hydroxyethylpiperazine-N2 ethanesulphonic acid (HEPES), 24 mM sodium bicarbonate, 40 mg/L gentamycin, pH 7.2 and 10% FCS.
(§2) Synthetic CDRs, scrambled peptides (controls), and […] of mAb C7/pc42 H2, selected for the highest cytotoxic activity, were diluted from 1 mM to 0.05 mM in RPMI with 10% FCS and incubated with B16F10-Nex2, SKmel28 and SKmel25 cells (5×10^3 cells/well) in 100 µL per well for 12 h at 37°C. Each peptide was tested in triplicate. After 12 h, the cytotoxic activities of the peptides were determined by measuring cell viability by Trypan Blue exclusion.

SKmel-25 = type: cell-based, human
Protocol: as §1, §2

C. albicans NCPF 3153 = assay: Murine invasive candidiasis, i.p. peptide treatment; type: in vivo, BALB/c mice; conditions: day 5 post-infection; 200 µg peptide i.p. x3; saline 160.3±46.6
Protocol: Animal experiments were approved by the Institutional Review Board of the School of Medicine and Odontology at the University of the Basque Country, Spain. Female BALB/c mice, 8-weeks old (11–12 animals/group), were infected intravenously with 5×10^5 C. albicans NCPF 3153 yeast cells suspended in 0.1 mL saline. Mice were treated i.p. with 200 µg of mAb C7 L1 and mAb C7/pc42 H1 and H2 for 3 days starting on day 0, and 4 h after the fungal challenge, and at 24 and 48 h thereafter. Control mice were injected with saline (same treatment schedule as those treated with the CDRs). Protection was evaluated by monitoring animal survival for 20 days. The mean survival time and numbers of CFU of C. albicans in infected tissues were calculated as reported previously.
The Kaplan-Meier log rank test was applied to survival data. Data on CFU in infected tissues were analyzed by Student's t test. p values of 0.05 were considered significant.

[2] = CDR peptides, 100 µg/mL in distilled water, CFU after 48–72 h, C. albicans UP10
[3] = C7/pc42 H2 alanine-substituted derivatives, 100 µg/mL, CFU assay

Row | Compound | % inhibitory activity (10 µg/ml), exogenous HIV-1 replication, IIIB (HIV-1 IIIB (X4)) [%] | % inhibitory activity (10 µg/ml), exogenous HIV-1 replication, BaL (HIV-1 BaL (R5)) [%] | Anti-Candida activity (%) at 100 µg/mL (Candida albicans UP10; [2]) [%] | % inhibitory activity (10 µg/ml), endogenous HIV-1 replication (R5 HIV-1; 10 µg/ml) [%] | also measured
1 | VLAYDGSYQHYADSVKG [HuA H2, synthetic peptide identical to heavy chain CDR H2 of human IgM mAb HuA] | 0 | 74 | 0 | 40 | –
2 | CC[C@H](C)[C@H](NC(=O)[C@@H](N)Cc1ccc(O)cc1)C(=O)N[C@@H](CO)C(=O)N[C@@H](CS)C(=O)N[C@@H](Cc1ccc(O)cc1)C(=O)N[C@@H](CC(N)=O)C(=O)NCC(=O)N[C@@H](C)C(=O)N[C@H](C(=O)N[C@@H](CO)C(=O)N[C@@H](Cc1ccc(O)cc1)C(=O)N[C@@H](CC(N)=O)C(=O)N[C@@H](CCC(N)=O)C(=O)N[C@@H](CCCCN)C(=O)N[C@@H](Cc1ccccc1)C(=O)N[C@@H](CCCCN)C(=O)O)[C@@H](C)O [C7/pc42 H2] (H-YISCYNGATSYNQKFK-OH) | – | – | – | – | EC50 (Candida albicans UP10): 4.19 µM; EC50 [1]: 53.5 µM; cytotoxicity to human melanoma cell line SKmel-28 (SKmel-28): equally cytotoxic; cytotoxicity to human melanoma cell line SKmel-25 (SKmel-25): equally cytotoxic
3 | SYTFH [HuA H1, synthetic peptide identical to heavy chain CDR H1 of human IgM mAb HuA] | 0 | 84 | 12.9 | 38 | –
4 | GYYMH [C7/pc42 H1, synthetic peptide identical to heavy chain CDR H1 shared by mAb C7 and mAb pc42] | 0 | 24 | 69.2 | 58 | CFU counts in kidney tissue (C. albicans NCPF 3153): 119.6±35.5; inhibition of R5 HIV-1 replication in treated cultures (R5 HIV-1; ex vivo conditions, 10 µg/ml): > 50%
5 | GQTTVTKIDEDY [HuA H3, synthetic peptide identical to heavy chain CDR H3 of human IgM mAb HuA] | 0 | 0 | 19.2 | 36 | –
6 | CSCC[C@H](NC(=O)[C@H](C)NC(=O)[C@H](Cc1ccc(O)cc1)NC(=O)CN)C(=O)N[C@@H](Cc1c[nH]cn1)C(=O)O [Y3A] (H-GYAMH-OH; N-terminus and C-terminus assumed) | – | – | – | – | % inhibitory activity (10 µg/ml) (R5 HIV-1): 90%
7 | PNPLKAM [pc42 H3, synthetic peptide identical to heavy chain CDR H3 of mouse mAb pc42] | 0 | 11 | 25.9 | 0 | –
8 | CSCC[C@H](NC(=O)[C@H](Cc1ccc(O)cc1)NC(=O)[C@H](Cc1ccc(O)cc1)NC(=O)[C@H](C)N)C(=O)N[C@@H](Cc1c[nH]cn1)C(=O)O [G1A] (H-AYYMH-OH; N-terminus and C-terminus assumed) | – | – | – | – | % inhibitory activity (10 µg/ml) (R5 HIV-1): 0%
9 | C[C@H](NC(=O)[C@H](Cc1ccc(O)cc1)NC(=O)[C@H](Cc1ccc(O)cc1)NC(=O)CN)C(=O)N[C@@H](Cc1c[nH]cn1)C(=O)O [M4A] (H-GYYAH-OH; N-terminus and C-terminus assumed) | – | – | – | – | % inhibitory activity (10 µg/ml) (R5 HIV-1): 41%
10 | CSCC[C@H](NC(=O)[C@H](Cc1ccc(O)cc1)NC(=O)[C@H](Cc1ccc(O)cc1)NC(=O)CN)C(=O)N[C@@H](C)C(=O)O [H5A] (H-GYYMA-OH; N-terminus and C-terminus assumed) | – | – | – | – | % inhibitory activity (10 µg/ml) (R5 HIV-1): 0%
11 | CSCC[C@H](NC(=O)[C@H](Cc1ccc(O)cc1)NC(=O)[C@H](C)NC(=O)CN)C(=O)N[C@@H](Cc1c[nH]cn1)C(=O)O [Y2A] (H-GAYMH-OH; N-terminus and C-terminus assumed) | – | – | – | – | % inhibitory activity (10 µg/ml) (R5 HIV-1): 61%
12 | CC[C@H](C)[C@H](NC(=O)[C@@H](N)Cc1ccc(O)cc1)C(=O)N[C@@H](CO)C(=O)N[C@@H](C)C(=O)N[C@@H](Cc1ccc(O)cc1)C(=O)N[C@@H](CC(N)=O)C(=O)NCC(=O)N[C@@H](C)C(=O)N[C@H](C(=O)N[C@@H](CO)C(=O)N[C@@H](Cc1ccc(O)cc1)C(=O)N[C@@H](CC(N)=O)C(=O)N[C@@H](CCC(N)=O)C(=O)N[C@@H](CCCCN)C(=O)N[C@@H](Cc1ccccc1)C(=O)N[C@@H](CCCCN)C(=O)O)[C@@H](C)O [C4A] (H-YISAYNGATSYNQKFK-OH; N-terminus and C-terminus assumed) | – | – | – | – | Anti-Candida activity (%) at 100 µg/mL (Candida albicans UP10; [3]): 94.51%; EC50 (Candida albicans UP10): 8.23 µM; EC50asd/EC50H2 (Candida albicans UP10): 1.96; EC50 [1]: 67.5 µM
13 | CC[C@H](C)[C@H](NC(=O)[C@@H](N)Cc1ccc(O)cc1)C(=O)N[C@@H](CO)C(=O)N[C@@H](CS)C(=O)N[C@@H](Cc1ccc(O)cc1)C(=O)N[C@@H](CC(N)=O)C(=O)NCC(=O)N[C@@H](C)C(=O)N[C@H](C(=O)N[C@@H](CO)C(=O)N[C@@H](C)C(=O)N[C@@H](CC(N)=O)C(=O)N[C@@H](CCC(N)=O)C(=O)N[C@@H](CCCCN)C(=O)N[C@@H](Cc1ccccc1)C(=O)N[C@@H](CCCCN)C(=O)O)[C@@H](C)O [Y11A] (H-YISCYNGATSANQKFK-OH; N-terminus and C-terminus assumed) | – | – | – | – | Anti-Candida activity (%) at 100 µg/mL (Candida albicans UP10; [3]): 55.70%; EC50 (Candida albicans UP10): 47.6 µM; EC50asd/EC50H2 (Candida albicans UP10): 11.35; EC50 [1]: 113 µM
14 | ARQGVRGGAMD [C7 H3, synthetic peptide identical to heavy chain CDR H3 of mouse mAb C7] | 75 | 0 | 55.5 | 0 | –
15 | QHIRELTRSE [pc42 L3, synthetic peptide identical to light chain CDR L3 of mouse mAb pc42] | 0 | 0 | 83.9 | 0 | –
16 | DASNRAT [HuA L2, synthetic peptide identical to light chain CDR L2 of human IgM mAb HuA] | 0 | 0 | 0 | 32 | –
17 | CC[C@H](C)[C@H](NC(=O)[C@@H](N)Cc1ccc(O)cc1)C(=O)N[C@@H](CO)C(=O)N[C@@H](CS)C(=O)N[C@@H](Cc1ccc(O)cc1)C(=O)N[C@@H](CC(N)=O)C(=O)NCC(=O)N[C@@H](C)C(=O)N[C@H](C(=O)N[C@@H](C)C(=O)N[C@@H](Cc1ccc(O)cc1)C(=O)N[C@@H](CC(N)=O)C(=O)N[C@@H](CCC(N)=O)C(=O)N[C@@H](CCCCN)C(=O)N[C@@H](Cc1ccccc1)C(=O)N[C@@H](CCCCN)C(=O)O)[C@@H](C)O [S10A] (H-YISCYNGATAYNQKFK-OH; N-terminus and C-terminus assumed) | – | – | – | – | Anti-Candida activity (%) at 100 µg/mL (Candida albicans UP10; [3]): 100.00%; EC50 (Candida albicans UP10): 13.2 µM; EC50asd/EC50H2 (Candida albicans UP10): 3.16; EC50 [1]: 119 µM
18 | CC[C@H](C)[C@H](NC(=O)[C@@H](N)Cc1ccc(O)cc1)C(=O)N[C@@H](CO)C(=O)N[C@@H](CS)C(=O)N[C@@H](Cc1ccc(O)cc1)C(=O)N[C@@H](CC(N)=O)C(=O)NCC(=O)N[C@@H](C)C(=O)N[C@H](C(=O)N[C@@H](CO)C(=O)N[C@@H](Cc1ccc(O)cc1)C(=O)N[C@@H](CC(N)=O)C(=O)N[C@@H](CCC(N)=O)C(=O)N[C@@H](CCCCN)C(=O)N[C@@H](Cc1ccccc1)C(=O)N[C@@H](C)C(=O)O)[C@@H](C)O [K16A] (H-YISCYNGATSYNQKFA-OH; N-terminus and C-terminus assumed) | – | – | – | – | Anti-Candida activity (%) at 100 µg/mL (Candida albicans UP10; [3]): 0%; EC50 (Candida albicans UP10): 161 µM; EC50asd/EC50H2 (Candida albicans UP10): 38.35; EC50 [1]: 87 µM
